pIC50: −log10 of the molar value. Active and inactive are the calls of the source. No cut-off for these calls is given here.
Key:
Cholinesterase = Cholinesterase (Equus caballus, UniProt P81908); test: Inhibition of horse serum BChE after 2 mins by Ellman's reaction
[1] = biological target: Cholinesterase (Equus caballus) (UniProt P81908); test: Inhibition of horse serum BChE at 14.8 mM after 2 mins by Ellman's reaction
[2] = biological target: Cholinesterase (Equus caballus) (UniProt P81908); test: Inhibition of horse serum BChE at 7.2 mM after 2 mins by Ellman's reaction
[3] = biological target: Cholinesterase (Equus caballus) (UniProt P81908); test: Inhibition of horse serum BChE at 65.1 uM after 2 mins by Ellman's reaction

Cholinesterase (Equus caballus), sequence (P81908 whole entry): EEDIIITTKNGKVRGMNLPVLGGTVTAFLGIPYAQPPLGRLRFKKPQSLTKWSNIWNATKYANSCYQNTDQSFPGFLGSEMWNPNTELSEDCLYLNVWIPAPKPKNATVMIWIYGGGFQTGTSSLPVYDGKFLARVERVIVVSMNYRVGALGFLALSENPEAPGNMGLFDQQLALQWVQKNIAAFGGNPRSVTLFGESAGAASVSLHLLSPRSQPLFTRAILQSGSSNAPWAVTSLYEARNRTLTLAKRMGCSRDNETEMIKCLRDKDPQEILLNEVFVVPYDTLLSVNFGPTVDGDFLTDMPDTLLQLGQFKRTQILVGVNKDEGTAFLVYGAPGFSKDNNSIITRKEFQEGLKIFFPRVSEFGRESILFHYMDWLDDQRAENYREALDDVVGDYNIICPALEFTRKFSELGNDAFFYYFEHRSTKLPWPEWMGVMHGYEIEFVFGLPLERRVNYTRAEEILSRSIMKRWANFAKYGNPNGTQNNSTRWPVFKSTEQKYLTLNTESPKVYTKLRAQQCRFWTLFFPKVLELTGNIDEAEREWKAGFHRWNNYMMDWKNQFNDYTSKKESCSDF
Cholinesterase, sequence (P81908 whole entry): as above

Row | Compound | pIC50 (Cholinesterase) | further results
1 | C/C(=C\COc1c2ccoc2cc2oc(=O)ccc12)CC[C@@H](OC(=O)CC(C)(O)CC(=O)OC[C@H]1O[C@@H](OC(C)C)[C@H](O)[C@@H](O)[C@@H]1O)C(C)(C)O (stereo partly drawn) [CITRUSOSIDE B] | 3.47 | 
2 | C/C(=C\COc1c2ccoc2cc2oc(=O)ccc12)CC[C@@H](O)C(C)(C)O | 4.81 | 
3 | CC(C)=CCC/C(C)=C/COc1c2ccoc2cc2oc(=O)ccc12 |  | inhibition [1]: inactive
4 | CC(C)O[C@@H]1O[C@H](CO)[C@@H](O)[C@H](OC(=O)CC(C)(O)CC(=O)O[C@H](COc2c3ccoc3cc3oc(=O)ccc23)C(C)(C)O)[C@H]1O (stereo partly drawn) |  | inhibition [2]: inactive
5 | COC(C)(C)[C@H](O)CC/C(C)=C/COc1c2ccoc2cc2oc(=O)ccc12 | 4.95 | 
6 | CC(C)(O)[C@H](O)COc1c2ccoc2cc2oc(=O)ccc12 |  | inhibition [3]: 24.6%
7 | CC(C)=CCC[C@@H](C)C/C=C/C(=O)OC[C@H]1O[C@@H](OC(C)C)[C@H](O)[C@@H](O)[C@@H]1O [CITRUSOSIDE A] | 3.42 | 
8 | CC(C)=CCOc1c2ccoc2cc2oc(=O)ccc12 [ISOIMPERATORIN] | 4.64 | 

Source: ChEMBL document CHEMBL1649341, “Citrusosides A-D and furanocoumarins with cholinesterase inhibitory activity from the fruit peels of Citrus hystrix” (J Nat Prod, 2010)
